Test results taken from US11084790B2, “Insoluble complex or solvate thereof, pharmaceutical composition and use thereof” (Fruithy Holdings Limited, priority 2017, dated 2021).
≈ marks a conversion by molar mass, not a printed value.

Assay: Test on the solubility in a simulated body fluid
Format: physicochemical
Details: simulated body fluid, 0.01 M PBS at pH 7.4
Method: Test on the Solubility in a Simulated Body Fluid
The concentration of the drug dissolved in the PBS buffered solution was determined with an HPLC-a method.

Compound	solubility at 24 h (phosphate buffered saline (simulated body fluid), 37 °C, aqueous buffer, thermodynamic from solid, read-out: Saturated solubility)	Saturated solubility
CCCN1CCCC[C@H]1C(=O)Nc1c(C)cccc1C [Ropivacaine free base, reference compound]	1360 µM (≈ 373 µg/mL)	
CCCCN1CCCCC1C(=O)Nc1c(C)cccc1C.CCCCN1CCCCC1C(=O)Nc1c(C)cccc1C.O=C(O)c1cc2ccccc2c(Cc2c(O)c(C(=O)O)cc3ccccc23)c1O [bis(bupivacaine) pamoate]		300 µM
